The text below walks through data of PMC9264404 (Toxicology and applied pharmacology, 2021).

The conditions of data set [1]: cited from earlier work.
The next data set concerns mice. The settings on record: cited from earlier work.
The subject of data set [2] is hepatic microsomes of mice. The following applies: cited from earlier work.
Data set [3] relates to hepatic microsomes of humans. The settings on record: DBC metabolism, human hepatic microsomes, MM model; cited from earlier work.
Data set [4] can be described thus: Pharmacokinetics in mice after oral gavage of 15 mg/kg DBC. It counts as in vivo, female B6129SF1/J mice.
The nature of data set [5]: Pharmacokinetics in human volunteers after oral microdose of 29 ng [14C]-DBC. The class given is in vivo.
Setting [6] is: average of human volunteers, 29 ng DBC oral.
[7] abbreviates: DBC metabolism, mouse hepatic microsomes, MM model.

Where two headings read alike, the source gives them in different places.

For `c1ccc2c(c1)cc1ccc3cccc4c5ccccc5c2c1c34` [DBC, dibenzo[def,p]chrysene], the “Peak concentration in blood” value in data set [1] (setting [6]) is 74.8 fM; in data set [1] (volunteers 8 and 9 (both), 29 ng DBC oral), ~ 100 fM; in data set [4] (15 mg/kg DBC oral), “around 3.5 μM”. Also, the “time of peak concentration in blood” value is “around 1 hr” in data set [1] (setting [6]); 1 to 2 h in data set [1] (volunteers 8 and 9, 29 ng DBC oral); 3 to 5 h in data set [4] (15 mg/kg DBC oral). Besides, the “Eliminated Total (sum of all DBC metabolites excreted in urine)” value in data set [1] (volunteer V5, oral dose 25.2 ng) is recorded as 0.532 ng 14C-DBCeq; in data set [1] (volunteer V6, oral dose 29.8 ng), 0.441 ng 14C-DBCeq; in data set [1] (volunteer V8, oral dose 23.9 ng), 0.285 ng 14C-DBCeq; in data set [1] (volunteer V9, oral dose 28.5 ng), 0.200 ng 14C-DBCeq; in data set [1] (volunteer V10, oral dose 25.6 ng), 0.494 ng 14C-DBCeq; in data set [1] (volunteer V13, oral dose 28.5 ng), 0.263 ng 14C-DBCeq. Also, the transplacental carcinogenicity entry in the data set on mice (B6129F1/J mice, offspring of mothers exposed to DBC) is “cause T-cell lymphoma, lung adenoma and liver lesions in offspring”. For the same compound, the “potency in producing lung adenomas relative to benzo[a]pyrene (B[a]P)” value in the data set with mice is listed as 100 times. For the same compound, in the data set with mice (mice exposed intraperitoneally), the “tumors after intraperitoneal exposure” value is “lung and liver cancer”. In addition, the “tumors after dermal exposure” value with mice (mice, dermal exposure) was “cause skin tumors”. Further, in the data set with mice (mice, intramammary exposure), the “tumors after intramammary exposure” value is recorded as “promote mammary tumors”. The Km in data set [2] (setting [7]) was 6.63 µM; in data set [3], 0.915 µM. The Vmax in data set [2] (setting [7]) is listed as 19.38 nmol/min/mg; in data set [3] it was 0.27 nmol/min/mg. The “DBC metabolism rate, mice compared to humans” value in data set [2] (after scaling to body weight to the ¾ power) is given as 3 fold. Besides, the “concentration in blood at 48 hr post dosing” value in data set [4] (15 mg/kg DBC oral) is recorded as “approximately 0.0075 μM”. In data set [4] (15 mg/kg DBC oral), the “levels detected in urine” value was “trace levels”. Moreover, in data set [4] (15 mg/kg oral, used as model parameter), the “percent of administered dose absorbed (amount of dose recovered in urine)” value is recorded as 0.311. Further, the “% Excreted” value in data set [5] (Average of volunteers, urine) worked out at 1.39%; in data set [5] (volunteer V5, urine) it was 2.11%; in data set [5] (volunteer V6, urine), 1.48%; in data set [5] (volunteer V8, urine), 1.20%; in data set [5] (volunteer V9, urine), 0.70%; in data set [5] (volunteer V10, urine) it was 1.93%. The “% Excreted” value in data set [5] (volunteer V13, urine) is 0.92%. Further, the “peak concentration relative to peak DBC-11,12-diol concentration” value in data set [5] (setting [6]) is given as 10 times.
With `Oc1c(O)c(O)c2c(cc3ccc4cccc5c6ccccc6c2c3c45)c1O` [DBC-tetrols, dibenzo[def,p]chrysene-11,12,13,14-tetraol], in data set [4] (15 mg/kg DBC oral, 0–16 hr collection interval), the “mean amount in urine relative to conjugated DBC-11,12-diol” value was 98.9 times.

As usually defined, the Km is the substrate concentration at which the rate is half of its maximum. As usually defined, the Vmax is the top rate of the reaction or transport when substrate is in excess.
